Assay results from PubChem BioAssay (NCI).
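Protocol summary: plate cells (96-well), add compound at 5 concentrations, incubate 48 h, interpolate endpoints linearly. At the TGI there is no net growth.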

What was measured:
Assay in all cases: inhibition of tumour cell growth, NCI panel, 48 h
MALME-3M melanoma = tested on: MALME-3M melanoma
COLO 205 colon = tested on: COLO 205 colon
NCI-H23 lung = tested on: NCI-H23 lung
LOX IMVI melanoma = tested on: LOX IMVI melanoma
OVCAR-3 ovarian = tested on: OVCAR-3 ovarian
SF-268 CNS = tested on: SF-268 CNS
HT29 colon = tested on: HT29 colon
SNB-75 CNS = tested on: SNB-75 CNS
HOP-62 NSCLC = tested on: HOP-62 NSCLC
MOLT-4 leukemia = tested on: MOLT-4 leukemia
TK-10 renal = tested on: TK-10 renal
DU-145 prostate = tested on: DU-145 prostate
CAKI-1 renal = tested on: CAKI-1 renal
UO-31 renal = tested on: UO-31 renal
SN12C renal = tested on: SN12C renal
EKVX NSCLC = tested on: EKVX NSCLC
HS 578T breast = tested on: HS 578T breast
SK-MEL-5 melanoma = tested on: SK-MEL-5 melanoma
U251 CNS = tested on: U251 CNS
KM12 colon = tested on: KM12 colon
MDA-MB-435 = tested on: MDA-MB-435
OVCAR-4 ovarian = tested on: OVCAR-4 ovarian
SK-MEL-2 melanoma = tested on: SK-MEL-2 melanoma
OVCAR-5 ovarian = tested on: OVCAR-5 ovarian
HOP-92 NSCLC = tested on: HOP-92 NSCLC
CCRF-CEM leukemia = tested on: CCRF-CEM leukemia
RPMI-8226 leukemia = tested on: RPMI-8226 leukemia
IGROV1 ovarian = tested on: IGROV1 ovarian
786-0 renal = tested on: 786-0 renal
PC-3 prostate = tested on: PC-3 prostate
A549 NSCLC = tested on: A549 NSCLC
SK-MEL-28 melanoma = tested on: SK-MEL-28 melanoma
RXF 393 renal = tested on: RXF 393 renal
A498 renal = tested on: A498 renal
ACHN renal = tested on: ACHN renal
MDA-MB-231 breast = tested on: MDA-MB-231 breast
BT-549 breast = tested on: BT-549 breast
UACC-62 melanoma = tested on: UACC-62 melanoma
SK-OV-3 ovarian = tested on: SK-OV-3 ovarian
HL-60(TB) leukemia = tested on: HL-60(TB) leukemia
MCF7 breast = tested on: MCF7 breast
T-47D breast = tested on: T-47D breast
HCT-15 colon = tested on: HCT-15 colon
NCI/ADR-RES ovarian = tested on: NCI/ADR-RES ovarian
HCT-116 colon = tested on: HCT-116 colon
SNB-19 CNS = tested on: SNB-19 CNS
SF-295 CNS = tested on: SF-295 CNS
NCI-H226 lung = tested on: NCI-H226 lung
OVCAR-8 ovarian = tested on: OVCAR-8 ovarian
NCI-H522 lung = tested on: NCI-H522 lung
M14 melanoma = tested on: M14 melanoma
MDA-N = tested on: MDA-N
K-562 leukemia = tested on: K-562 leukemia
SW-620 colon = tested on: SW-620 colon
UACC-257 melanoma = tested on: UACC-257 melanoma
SF-539 CNS = tested on: SF-539 CNS
SR leukemia = tested on: SR leukemia
HCC-2998 colon = tested on: HCC-2998 colon

`Clc1ccc2c(NCCNC3CCCCC3)ccnc2c1` gave a TGI (MALME-3M melanoma) of 3.64 µM, a TGI (COLO 205 colon) of 2.79 µM and a TGI (NCI-H23 lung) of 32.2 µM. The TGI (LOX IMVI melanoma) was 8.53 µM, the TGI (OVCAR-3 ovarian) was 37.5 µM and the TGI (SF-268 CNS) was 22.8 µM. The TGI (HT29 colon) was 14.8 µM, the TGI (SNB-75 CNS) was 23.4 µM and the TGI (HOP-62 NSCLC) was 27.4 µM. It also gave a TGI (MOLT-4 leukemia) of 18.6 µM, a TGI (TK-10 renal) of 7.15 µM and a TGI (DU-145 prostate) of 36.7 µM. The TGI (CAKI-1 renal) was 24.3 µM, the TGI (UO-31 renal) was 11.2 µM and the TGI (SN12C renal) was 33.8 µM. For the same compound, the TGI (EKVX NSCLC) was 15.7 µM, the TGI (HS 578T breast) was 8.15 µM and the TGI (SK-MEL-5 melanoma) was 3.16 µM. For the same compound, the TGI (U251 CNS) was 17.7 µM, the TGI (KM12 colon) was 31 µM and the TGI (MDA-MB-435) was 9.92 µM. The TGI (OVCAR-4 ovarian) was 46.5 µM, the TGI (SK-MEL-2 melanoma) was 11 µM and the TGI (OVCAR-5 ovarian) was 30.5 µM. The TGI (HOP-92 NSCLC) was 22.5 µM, the TGI (CCRF-CEM leukemia) was 9.77 µM and the TGI (RPMI-8226 leukemia) was 17 µM. The TGI (IGROV1 ovarian) was 27.8 µM, the TGI (786-0 renal) was 20.9 µM and the TGI (PC-3 prostate) was 33.9 µM. For the same compound, the TGI (A549 NSCLC) was 31.2 µM, the TGI (SK-MEL-28 melanoma) was 3.62 µM and the TGI (RXF 393 renal) was 27.1 µM. It also gave a TGI (A498 renal) of 5.85 µM, a TGI (ACHN renal) of 25.3 µM and a TGI (MDA-MB-231 breast) of 23.8 µM. The TGI (BT-549 breast) was 23.3 µM, the TGI (UACC-62 melanoma) was 15.8 µM and the TGI (SK-OV-3 ovarian) was 37.8 µM. For the same compound, the TGI (HL-60(TB) leukemia) was 6.63 µM, the TGI (MCF7 breast) was 15.9 µM and the TGI (T-47D breast) was 64.6 µM. The TGI (HCT-15 colon) was 20.4 µM, the TGI (NCI/ADR-RES ovarian) was 33.7 µM and the TGI (HCT-116 colon) was 21.1 µM. It also gave a TGI (SNB-19 CNS) of 35.5 µM, a TGI (SF-295 CNS) of 10.3 µM and a TGI (NCI-H226 lung) of 24.8 µM. The TGI (OVCAR-8 ovarian) was 31.9 µM, the TGI (NCI-H522 lung) was 7.46 µM and the TGI (M14 melanoma) was 3.41 µM. It also gave a TGI (MDA-N) of 5.42 µM, a TGI (K-562 leukemia) of 6.13 µM and a TGI (SW-620 colon) of 29.7 µM.
`CCSc1cc(C(=O)OC)c2n(c1=O)CCCC2` showed a TGI (MALME-3M melanoma) greater than 100 µM, a TGI (COLO 205 colon) greater than 100 µM and a TGI (NCI-H23 lung) greater than 100 µM. It also gave a TGI (LOX IMVI melanoma) greater than 100 µM, a TGI (SF-268 CNS) greater than 100 µM and a TGI (HT29 colon) greater than 100 µM. The TGI (SNB-75 CNS) was greater than 100 µM, the TGI (HOP-62 NSCLC) was greater than 100 µM and the TGI (MOLT-4 leukemia) was greater than 100 µM. The TGI (TK-10 renal) was greater than 100 µM, the TGI (DU-145 prostate) was greater than 100 µM and the TGI (CAKI-1 renal) was greater than 100 µM. It also gave a TGI (UO-31 renal) greater than 100 µM, a TGI (SN12C renal) greater than 100 µM and a TGI (EKVX NSCLC) greater than 100 µM. For the same compound, the TGI (HS 578T breast) was greater than 100 µM, the TGI (SK-MEL-5 melanoma) was greater than 100 µM and the TGI (U251 CNS) was greater than 100 µM. The TGI (KM12 colon) was greater than 100 µM, the TGI (MDA-MB-435) was greater than 100 µM and the TGI (OVCAR-4 ovarian) was greater than 100 µM. The TGI (SK-MEL-2 melanoma) was greater than 100 µM, the TGI (OVCAR-5 ovarian) was greater than 100 µM and the TGI (CCRF-CEM leukemia) was greater than 100 µM. It also gave a TGI (IGROV1 ovarian) greater than 100 µM, a TGI (786-0 renal) greater than 100 µM and a TGI (PC-3 prostate) greater than 100 µM. For the same compound, the TGI (A549 NSCLC) was greater than 100 µM, the TGI (SK-MEL-28 melanoma) was greater than 100 µM and the TGI (UACC-257 melanoma) was greater than 100 µM. For the same compound, the TGI (RXF 393 renal) was greater than 100 µM, the TGI (A498 renal) was greater than 100 µM and the TGI (ACHN renal) was greater than 100 µM. It also gave a TGI (MDA-MB-231 breast) greater than 100 µM, a TGI (SF-539 CNS) greater than 100 µM and a TGI (BT-549 breast) greater than 100 µM. For the same compound, the TGI (UACC-62 melanoma) was greater than 100 µM, the TGI (SK-OV-3 ovarian) was greater than 100 µM and the TGI (HL-60(TB) leukemia) was greater than 100 µM. For the same compound, the TGI (MCF7 breast) was greater than 100 µM, the TGI (T-47D breast) was greater than 100 µM and the TGI (HCT-15 colon) was greater than 100 µM. It also gave a TGI (NCI/ADR-RES ovarian) greater than 100 µM, a TGI (HCT-116 colon) greater than 100 µM and a TGI (SNB-19 CNS) greater than 100 µM. For the same compound, the TGI (SF-295 CNS) was greater than 100 µM, the TGI (NCI-H226 lung) was greater than 100 µM and the TGI (OVCAR-8 ovarian) was greater than 100 µM. For the same compound, the TGI (NCI-H522 lung) was greater than 100 µM, the TGI (M14 melanoma) was greater than 100 µM and the TGI (MDA-N) was greater than 100 µM. For the same compound, the TGI (SW-620 colon) was greater than 100 µM.
`CNC(=O)Oc1ccc(C(=S)Nc2ccc(Br)cc2)cc1` gave a TGI (MALME-3M melanoma) of 98.8 µM, a TGI (COLO 205 colon) of 39.2 µM and a TGI (SR leukemia) of 46.1 µM. It also gave a TGI (NCI-H23 lung) of 38.3 µM, a TGI (LOX IMVI melanoma) of 27 µM and a TGI (OVCAR-3 ovarian) of 49.4 µM. It also gave a TGI (SF-268 CNS) greater than 100 µM, a TGI (HT29 colon) of 44.8 µM and a TGI (HOP-62 NSCLC) greater than 100 µM. The TGI (MOLT-4 leukemia) was 40.4 µM, the TGI (DU-145 prostate) was 81 µM and the TGI (CAKI-1 renal) was 51.3 µM. For the same compound, the TGI (UO-31 renal) was 60 µM, the TGI (EKVX NSCLC) was 42 µM and the TGI (HS 578T breast) was greater than 100 µM. It also gave a TGI (SK-MEL-5 melanoma) of 34.9 µM, a TGI (U251 CNS) of 74.8 µM and a TGI (KM12 colon) of 35.9 µM. For the same compound, the TGI (MDA-MB-435) was 63.9 µM, the TGI (OVCAR-4 ovarian) was 77.1 µM and the TGI (SK-MEL-2 melanoma) was 46 µM. For the same compound, the TGI (OVCAR-5 ovarian) was 77.4 µM, the TGI (CCRF-CEM leukemia) was 18.3 µM and the TGI (RPMI-8226 leukemia) was greater than 100 µM. For the same compound, the TGI (IGROV1 ovarian) was 18.7 µM, the TGI (786-0 renal) was 60.5 µM and the TGI (PC-3 prostate) was 83.3 µM. The TGI (A549 NSCLC) was greater than 100 µM, the TGI (SK-MEL-28 melanoma) was 62.7 µM and the TGI (UACC-257 melanoma) was greater than 100 µM. The TGI (A498 renal) was 53.3 µM, the TGI (ACHN renal) was greater than 100 µM and the TGI (SF-539 CNS) was 47.2 µM. For the same compound, the TGI (BT-549 breast) was 44.2 µM, the TGI (UACC-62 melanoma) was 30.1 µM and the TGI (HCC-2998 colon) was 41.4 µM. For the same compound, the TGI (SK-OV-3 ovarian) was greater than 100 µM, the TGI (HL-60(TB) leukemia) was 24.8 µM and the TGI (MCF7 breast) was 83.4 µM. It also gave a TGI (T-47D breast) of 80.2 µM, a TGI (HCT-15 colon) of 43.1 µM and a TGI (NCI/ADR-RES ovarian) of 54.7 µM. It also gave a TGI (HCT-116 colon) of 46.1 µM, a TGI (SNB-19 CNS) greater than 100 µM and a TGI (OVCAR-8 ovarian) of 22.4 µM. The TGI (NCI-H522 lung) was 31.2 µM, the TGI (M14 melanoma) was 46.4 µM and the TGI (MDA-N) was 57.3 µM. The TGI (K-562 leukemia) was 76.1 µM and the TGI (SW-620 colon) was greater than 100 µM.
